Where a name gives a salt, the structure may show the parent alone.
How the values were obtained:
MV4-11 cells = test: Inhibition of MV4-11 cell proliferation (CellTiterGlo, 72 h); type: cell-based; details: Homo sapiens; 72 h growth inhibition; uncertainty ±20%
[1] = biological target: T1, isolated kinase domain of the human FLT3 receptor (a.a. 571-993) (Homo sapiens, UniProt P36888); test: FLT3 fluorescence polarization kinase assay; type: biochemical; details: 150 uM ATP; uncertainty ±10%
T1 construct: human FLT3 receptor (a.a. 571-993)
T1 sequence (P36888 571-993): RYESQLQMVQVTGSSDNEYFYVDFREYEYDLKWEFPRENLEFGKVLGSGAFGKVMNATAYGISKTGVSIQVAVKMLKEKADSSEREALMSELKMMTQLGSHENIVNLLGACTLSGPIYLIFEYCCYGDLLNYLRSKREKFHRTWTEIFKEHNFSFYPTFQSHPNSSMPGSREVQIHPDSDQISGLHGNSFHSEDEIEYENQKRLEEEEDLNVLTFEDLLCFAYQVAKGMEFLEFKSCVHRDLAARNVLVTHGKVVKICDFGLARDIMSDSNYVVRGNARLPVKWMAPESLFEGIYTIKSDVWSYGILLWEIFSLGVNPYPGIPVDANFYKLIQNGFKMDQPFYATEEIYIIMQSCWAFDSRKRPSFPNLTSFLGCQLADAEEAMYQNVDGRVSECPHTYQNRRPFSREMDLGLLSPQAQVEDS

Row | SMILES | IC50 (MV4-11 cells) [nM] | IC50 [1] [nM]
1 | CN1CCN(CCOc2ccc3c(C4CCN(C(=O)Nc5ccc(N6CCCC6)cc5)CC4)ncnc3c2)CC1=O [Compound 202, 4-{7-[2-(4-Methyl-3-oxo-piperazin-1-yl)-ethoxy]-quinazolin-4-yl}-piperidine-1-carboxylic acid (4-pyrrolidin-1-yl-phenyl)-amide] | 74 | 90
2 | CN1CCN(CCCOc2cc3ncnc(C4CCN(C(=O)Nc5ccc(N6CCOCC6)cc5)CC4)c3cc2F)CC1 [Compound 205, 4-{6-Fluoro-7-[3-(4-methyl-piperazin-1-yl)-propoxy]-quinazolin-4-yl}-piperidine-1-carboxylic acid (4-morpholin-4-yl-phenyl)-amide] | 78 | 63
3 | COc1cc2ncnc(C3CCN(C(=O)Nc4ccc(OC(C)C)cc4)CC3)c2cc1OC [Example 1, 4-(6,7-Dimethoxy-quinazolin-4-yl)-piperidine-1-carboxylic acid (4-isopropoxy-phenyl)-amide hydrochloride] | 88 | 46
4 | CC(C)Oc1ccc(NC(=O)N2CCC(c3ncnc4ccc(C#CCN5CCOCC5)cc34)CC2)cc1 [Example 15, 4-[6-(3-Morpholin-4-yl-prop-1-ynyl)-quinazolin-4-yl]-piperidine-1-carboxylic acid (4-isopropoxy-phenyl)-amide] | 30 | 46
5 | CC(C)c1ccc(NC(=O)CN2CCC(c3ncnc4ccccc34)CC2)cc1 [Example 16, N-(4-Isopropyl-phenyl)-2-(4-quinazolin-4-yl-piperidin-1-yl)-acetamide] | 559 | 56
6 | COc1cc2ncnc(C3CCN(C(=O)Nc4ccc(OC5CCC5)nc4)CC3)c2cc1OC [Example 17, 4-(6,7-Dimethoxy-quinazolin-4-yl)-piperidine-1-carboxylic acid (6-cyclobutoxy-pyridin-3-yl)-amide] | 31 | 16
7 | COc1cc2ncnc(C3CCN(C(=O)Nc4ccc(N5CCOCC5)cc4)CC3)c2cc1OC [Example 18, 4-(6,7-Dimethoxy-quinazolin-4-yl)-piperidine-1-carboxylic acid (4-morpholin-4-yl-phenyl)-amide] | 137 | 62
8 | COc1cc2ncnc(C3CCN(C(=O)Nc4ccc(N5CCCCC5)cc4)CC3)c2cc1OC [Example 19, 4-(6,7-Dimethoxy-quinazolin-4-yl)-piperidine-1-carboxylic acid (4-piperidin-1-yl-phenyl)-amide] | 10 | 17
9 | COc1cc2ncnc(C3CCN(C(=O)Nc4ccc(C5CCCCC5)cc4)CC3)c2cc1OC [Example 21, 4-(6,7-Dimethoxy-quinazolin-4-yl)-piperidine-1-carboxylic acid (4-cyclohexyl-phenyl)-amide] | 27 | 7
10 | COc1cc2ncnc(C3CCN(C(=O)Nc4ccc(CO)cc4)CC3)c2cc1OC [Example 22, 4-(6,7-Dimethoxy-quinazolin-4-yl)-piperidine-1-carboxylic acid (4-hydroxymethyl-phenyl)-amide] | > 10000 | 4400
11 | COc1cc2ncnc(C3CCN(C(=O)Nc4ccc5[nH]ccc5c4)CC3)c2cc1OC [Example 23, 4-(6,7-Dimethoxy-quinazolin-4-yl)-piperidine-1-carboxylic acid (1H-indol-5-yl)-amide] | 2700 | 390
12 | COc1cc2ncnc(C3CCN(C(=O)Nc4ccc5ncsc5c4)CC3)c2cc1OC [Example 24, 4-(6,7-Dimethoxy-quinazolin-4-yl)-piperidine-1-carboxylic acid benzothiazol-6-ylamide] | 3700 | 5500
13 | O=C(Nc1ccc(N2CCOCC2)cc1)N1CCC(c2ncnc3cc(N4CC[C@H](O)C4)ccc23)CC1 [Example 128, 4-[7-(3-Hydroxy-pyrrolidin-1-yl)-quinazolin-4-yl]-piperidine-1-carboxylic acid (4-morpholin-4-yl-phenyl)-amide] | 16 | 25
14 | CC(C)Oc1ccc(NC(=O)N2CCC(c3ncnc4ccc(N5CCN(C)CC5)cc34)CC2)cc1 [Example 131, 4-[6-(4-Methyl-piperazin-1-yl)-quinazolin-4-yl]-piperidine-1-carboxylic acid (4-isopropoxy-phenyl)-amide] | 2800 | 436
15 | O=C(Nc1ccc(N2CCOCC2)cc1)N1CCC(c2ncnc3cc(N4CCC[C@@H]4CO)ccc23)CC1 [Example 132, (R)-4-[7-(2-Hydroxymethyl-pyrrolidin-1-yl)-quinazolin-4-yl]-piperidine-1-carboxylic acid (4-morpholin-4-yl-phenyl)-amide] | 33 | 67
16 | O=C(Nc1ccc(N2CCOCC2)cc1)N1CCC(c2ncnc3cc(OCCCN4CCOCC4)ccc23)CC1 [Example 133, 4-[7-(3-Morpholin-4-yl-propoxy)-quinazolin-4-yl]-piperidine-1-carboxylic acid (4-morpholin-4-yl-phenyl)-amide] | 58 | 2
17 | CCN(CC)CCCOc1ccc2c(C3CCN(C(=O)Nc4ccc(N5CCOCC5)cc4)CC3)ncnc2c1 [Example 134, 4-[7-(3-Diethylamino-propoxy)-quinazolin-4-yl]-piperidine-1-carboxylic acid (4-morpholin-4-yl-phenyl)-amide] | 43 | 2
18 | CN1CCN(c2ccc3c(C4CCN(C(=O)Nc5ccc(N6CCOCC6)cc5)CC4)ncnc3c2)CC1 [Example 135, 4-[7-(4-Methyl-piperazin-1-yl)-quinazolin-4-yl]-piperidine-1-carboxylic acid (4-morpholin-4-yl-phenyl)-amide] | 125 | 27
19 | CCN1CCN(c2ccc3c(C4CCN(C(=O)Nc5ccc(N6CCOCC6)cc5)CC4)ncnc3c2)CC1 [Example 136, 4-[7-(4-Ethyl-piperazin-1-yl)-quinazolin-4-yl]-piperidine-1-carboxylic acid (4-morpholin-4-yl-phenyl)-amide] | 163 | 25
20 | O=C(Nc1ccc(N2CCOCC2)cc1)N1CCC(c2ncnc3cc(N4CCN(CCO)CC4)ccc23)CC1 [Example 137, 4-{7-[4-(2-Hydroxy-ethyl)-piperazin-1-yl]-quinazolin-4-yl}-piperidine-1-carboxylic acid (4-morpholin-4-yl-phenyl)-amide] | 74 | 12
21 | CN1CCCN(c2ccc3c(C4CCN(C(=O)Nc5ccc(N6CCOCC6)cc5)CC4)ncnc3c2)CC1 [Example 138, 4-[7-(4-Methyl-[1,4]diazepan-1-yl)-quinazolin-4-yl]-piperidine-1-carboxylic acid (4-morpholin-4-yl-phenyl)-amide] | 220 | 28
22 | O=C(Nc1ccc(N2CCOCC2)cc1)N1CCC(c2ncnc3cc(N4CCC[C@H]4CO)ccc23)CC1 [Example 139, (S)-4-[7-(2-Hydroxymethyl-pyrrolidin-1-yl)-quinazolin-4-yl]-piperidine-1-carboxylic acid (4-morpholin-4-yl-phenyl)-amide] | 387 | 33
23 | O=C(Nc1ccc(N2CCOCC2)cc1)N1CCC(c2ncnc3cc(N4CCNCC4)ccc23)CC1 [Example 140, 4-(7-Piperazin-1-yl-quinazolin-4-yl)-piperidine-1-carboxylic acid (4-morpholin-4-yl-phenyl)-amide] | 170 | 45
24 | CC(=O)N1CCN(c2ccc3c(C4CCN(C(=O)Nc5ccc(N6CCOCC6)cc5)CC4)ncnc3c2)CC1 [Example 141, 4-[7-(4-Acetyl-piperazin-1-yl)-quinazolin-4-yl]-piperidine-1-carboxylic acid (4-morpholin-4-yl-phenyl)-amide] | 79 | 66
25 | CS(=O)(=O)N1CCN(c2ccc3c(C4CCN(C(=O)Nc5ccc(N6CCOCC6)cc5)CC4)ncnc3c2)CC1 [Example 142, 4-[7-(4-Methanesulfonyl-piperazin-1-yl)-quinazolin-4-yl]-piperidine-1-carboxylic acid (4-morpholin-4-yl-phenyl)-amide] | 88 | 6
26 | CN(C)C(=O)N1CCN(c2ccc3c(C4CCN(C(=O)Nc5ccc(N6CCOCC6)cc5)CC4)ncnc3c2)CC1 [Example 143, 4-{4-[1-(4-Morpholin-4-yl-phenylcarbamoyl)-piperidin-4-yl]-quinazolin-7-yl}-piperazine-1-carboxylic acid dimethylamide] | 39 | 4
27 | CN(C)CC(=O)N1CCN(c2ccc3c(C4CCN(C(=O)Nc5ccc(N6CCOCC6)cc5)CC4)ncnc3c2)CC1 [Example 144, 4-{7-[4-(2-Dimethylamino-acetyl)-piperazin-1-yl]-quinazolin-4-yl}-piperidine-1-carboxylic acid (4-morpholin-4-yl-phenyl)-amide] | 117 | 13
28 | O=C(Nc1ccc(N2CCOCC2)cc1)N1CCC(c2ncnc3cc(N4CCOCC4)ccc23)CC1 [Example 145, 4-(7-Morpholin-4-yl-quinazolin-4-yl)-piperidine-1-carboxylic acid (4-morpholin-4-yl-phenyl)-amide] | 137 | 65
29 | CS(=O)(=O)CCNc1ccc2c(C3CCN(C(=O)Nc4ccc(N5CCOCC5)cc4)CC3)ncnc2c1 [Example 146, 4-[7-(2-Methanesulfonyl-ethylamino)-quinazolin-4-yl]-piperidine-1-carboxylic acid (4-morpholin-4-yl-phenyl)-amide] | 322 | 274

Source: patent publication US20070004660A1, “Synergistic Modulation of Flt3 Kinase Using Alkylquinolines and Alkylquinazolines” (priority 2005, published 2007)
